Where “and” joins values, the source holds several entries; their conditions need not be identical. Equal values may be shown once.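 How tested: cells in 96-well plates exposed to compound for 48 hours at five concentrations. At the GI50, growth is halved. TGI is the concentration that stops growth completely.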
Test system: MDA-MB-231 breast
Experiment: growth of human tumour cells (NCI), 48 h

**Q.** Which GI50 does the source give for `O=C(NCc1ccc(Cn2c(=O)sn(-c3ccccc3)c2=O)cc1)OCc1ccc2cccc(O)c2n1` here?
**A.** 1.19 µM

**Q.** What about the TGI of the same compound?
**A.** 2.55 µM

**Q.** How did the TGI turn out when `COC(c1ccc(C(C)(C)C)cc1)(c1ccc(C(C)(C)C)cc1)c1ccc(C(C)(C)C)cc1` was run?
**A.** > 100 µM

**Q.** For `CC(C)c1[nH]nc2c1N=C(c1ccccc1Cl)c1cc([N+](=O)[O-])ccc1N2`, which GI50 is on record?
**A.** 7.92 µM

**Q.** What about the TGI of the same compound?
**A.** > 25 µM

**Q.** Which results are given for `COc1ccc(-c2nccn2-c2ccc(OC)cc2)cc1`?
**A.** GI50: 16.4 µM; TGI: 57.5 µM

**Q.** With `O=C(/C=C/c1ccccc1)c1ccccc1` as the compound, how does the TGI read?
**A.** > 10 µM

**Q.** Which results are given for `CC(C)[C@H](O)C(=O)N[C@@H](C)C(=O)N[C@@H]1C(=O)N(C)CCc2ccccc21`?
**A.** GI50: > 100 µM; TGI: > 100 µM

**Q.** What does the source list for `C=CC(=O)N1CN(C(=O)C=C)CN(C(=O)C=C)C1`?
**A.** GI50: 11.5 µM; TGI: 35.6 µM

**Q.** How did the GI50 turn out when `COc1ccc(-c2cnnn2-c2nonc2-n2cccc2)cc1` was run?
**A.** 1.21 µM

**Q.** And the TGI?
**A.** > 25 µM

**Q.** For `C#CCOc1cccc(Nc2ncnc3c(NC(=O)C=C)cccc23)c1`, which GI50 is on record?
**A.** 20.7 µM

**Q.** What about the TGI of the same compound?
**A.** > 100 µM

**Q.** For `O=C(/C(=C\c1c(-c2ccccc2)[nH]c2ccccc12)S(=O)(=O)c1ccccc1)c1ccccc1`, which GI50 is on record?
**A.** > 100 µM

**Q.** What about the TGI of the same compound?
**A.** > 100 µM

**Q.** Which TGI does the source give for `COc1ccc(C(=O)c2cc(OC)c(OC)c(OC)c2)cc1OC` here?
**A.** > 100 µM

**Q.** `O=C1c2ccccc2-c2c1c1ccccc1c(=O)n2CCN1CCNCC1` was tested. Which GI50 did it give?
**A.** 2.45 µM

**Q.** What about the TGI of the same compound?
**A.** 10.7 µM

**Q.** What does the source list for `CCCc1cc(=O)n2c(C(=O)Nc3ccc(Cl)cc3C)c(C(=O)Nc3ccc(F)cc3)sc2n1`?
**A.** GI50: 0.698 µM; TGI: 3.08 µM

**Q.** What does the source list for `Cc1ccc(OCCOCCOCCOCCOc2ccc(C)n(O)c2=S)c(=S)n1O`?
**A.** GI50: 0.114 µM; TGI: > 100 µM

**Q.** For `COc1ccc(-c2ccc3c(N4CCOC[C@@H]4C)nc(N4CCOC[C@@H]4C)nc3n2)cc1CO`, which GI50 is on record?
**A.** 0.00595 µM and 0.0364 µM

**Q.** What about the TGI of the same compound?
**A.** 13.8 µM

**Q.** What does the source list for `N[C@H](CCC(=O)N[C@@H](Cc1c[nH]c2ccccc12)C(=O)O)C(=O)O`?
**A.** GI50: > 100 µM; TGI: > 100 µM

**Q.** `COC(=O)c1cc2c(o1)-c1nccc3c1c(nc1ccccc13)C2=O` was tested. Which GI50 did it give?
**A.** 5.1 µM

**Q.** And the TGI?
**A.** 39.5 µM

**Q.** How did the GI50 turn out when `Nc1ccccc1O.O.O=C(O)C1[O][Sb][O]C1C(=O)O` (configuration not stated) was run?
**A.** 23.6 µM

**Q.** What about the TGI of the same compound?
**A.** > 71.7 µM

**Q.** What does the source list for `O=C(c1ccco1)c1c(C(F)(F)F)n([O-])c2ccc(C(F)(F)F)cc2[n+]1=O`?
**A.** GI50: 0.298 µM; TGI: 0.768 µM

**Q.** Which results are given for `OC(c1cc(-c2ccc(C(F)(F)F)cc2)nc(C(F)(F)F)c1)C1CCCCN1` (configuration not stated)?
**A.** GI50: 1.72 µM and 2.42 µM; TGI: 3.16 µM and 5.65 µM

**Q.** `O=C(Nc1cc(Nc2ncccc2-c2ncnc3nc[nH]c23)ccc1F)c1cc(C(F)(F)F)cc(C(F)(F)F)c1` was tested. Which GI50 did it give?
**A.** 1.04 µM

**Q.** And the TGI?
**A.** 2.79 µM

**Q.** Which results are given for `CC1(C)CN=C(NN=C(/C=C/c2ccc(C(F)(F)F)cc2)/C=C/c2ccc(C(F)(F)F)cc2)NC1`?
**A.** GI50: 0.477 µM; TGI: 1.91 µM

**Q.** With `CCCCCCCCCCNC(=O)CI` as the compound, how does the GI50 read?
**A.** 1.66 µM

**Q.** What about the TGI of the same compound?
**A.** 3.29 µM

**Q.** How did the GI50 turn out when `CCc1ccc2c(c1)C(=O)c1c-2n(CCCN=[N+]=[N-])c(=O)c2cc([N+](=O)[O-])ccc12` was run?
**A.** > 50 µM

**Q.** What about the TGI of the same compound?
**A.** > 50 µM

**Q.** `Cc1cc(N/N=C/c2ccccn2)nc2ccccc12` was tested. Which GI50 did it give?
**A.** 0.469 µM

**Q.** What about the TGI of the same compound?
**A.** 14.3 µM

**Q.** `Cn1c(=O)c2c(nc(C(=N)SCC(=O)O)n2C)n(C)c1=O` was tested. Which TGI did it give?
**A.** > 100 µM

**Q.** Which TGI does the source give for `COc1ccc(C(CC(=O)c2ccc3c(c2)OCO3)c2c(O)c3ccccc3oc2=O)cc1OC` (configuration not stated) here?
**A.** > 100 µM

**Q.** With `Nc1cc(Br)c(-c2nnc(CCC(=O)c3nc4ccccc4[nH]3)o2)c(Br)c1` as the compound, how does the GI50 read?
**A.** 10.1 µM

**Q.** And the TGI?
**A.** 86.8 µM

**Q.** Which GI50 does the source give for `CC(C)(C)[Si](C)(C)OC1[C@@H](CNC(=O)NC(=O)CCl)O[C@@H](n2cnc3c(N)ncnc32)[C@H]1O[Si](C)(C)C(C)(C)C` (some centres not stated) here?
**A.** 0.905 µM

**Q.** What about the TGI of the same compound?
**A.** 1.71 µM

**Q.** `COc1ccc(/C(C)=C(\c2ccc(OCCN3CCCCCC3)cc2)c2ccc(OC(=O)C3CCCCC3)cc2)cc1` was tested. Which GI50 did it give?
**A.** 1.05 µM

**Q.** What about the TGI of the same compound?
**A.** 3 µM

Test system: NCI-H460 lung
Experiment: growth of human tumour cells (NCI), 48 h

**Q.** What does the source list for `O=C(NCc1ccc(Cn2c(=O)sn(-c3ccccc3)c2=O)cc1)OCc1ccc2cccc(O)c2n1`?
**A.** GI50: 1.41 µM; TGI: 3.13 µM

**Q.** With `COC(c1ccc(C(C)(C)C)cc1)(c1ccc(C(C)(C)C)cc1)c1ccc(C(C)(C)C)cc1` as the compound, how does the TGI read?
**A.** > 100 µM

**Q.** With `CC(C)c1[nH]nc2c1N=C(c1ccccc1Cl)c1cc([N+](=O)[O-])ccc1N2` as the compound, how does the GI50 read?
**A.** 5.77 µM

**Q.** What about the TGI of the same compound?
**A.** 15.9 µM

**Q.** How did the GI50 turn out when `COc1ccc(-c2nccn2-c2ccc(OC)cc2)cc1` was run?
**A.** 17.9 µM

**Q.** And the TGI?
**A.** 60.7 µM

**Q.** For `O=C(/C=C/c1ccccc1)c1ccccc1`, which TGI is on record?
**A.** > 10 µM

**Q.** What does the source list for `CC(C)[C@H](O)C(=O)N[C@@H](C)C(=O)N[C@@H]1C(=O)N(C)CCc2ccccc21`?
**A.** GI50: > 100 µM; TGI: > 100 µM

**Q.** For `C=CC(=O)N1CN(C(=O)C=C)CN(C(=O)C=C)C1`, which GI50 is on record?
**A.** 21.7 µM

**Q.** What about the TGI of the same compound?
**A.** 50.4 µM

**Q.** What does the source list for `COc1ccc(-c2cnnn2-c2nonc2-n2cccc2)cc1`?
**A.** GI50: 0.344 µM; TGI: 11.6 µM

**Q.** Which results are given for `C#CCOc1cccc(Nc2ncnc3c(NC(=O)C=C)cccc23)c1`?
**A.** GI50: 27 µM; TGI: 80.4 µM

**Q.** Which GI50 does the source give for `O=C(/C(=C\c1c(-c2ccccc2)[nH]c2ccccc12)S(=O)(=O)c1ccccc1)c1ccccc1` here?
**A.** 5.9 µM

**Q.** What about the TGI of the same compound?
**A.** > 100 µM

**Q.** With `COc1ccc(C(=O)c2cc(OC)c(OC)c(OC)c2)cc1OC` as the compound, how does the TGI read?
**A.** > 100 µM

**Q.** What does the source list for `O=C1c2ccccc2-c2c1c1ccccc1c(=O)n2CCN1CCNCC1`?
**A.** GI50: 0.668 µM; TGI: > 100 µM

**Q.** For `CCCc1cc(=O)n2c(C(=O)Nc3ccc(Cl)cc3C)c(C(=O)Nc3ccc(F)cc3)sc2n1`, which GI50 is on record?
**A.** 20.8 µM

**Q.** What about the TGI of the same compound?
**A.** > 150 µM

**Q.** Which GI50 does the source give for `Cc1ccc(OCCOCCOCCOCCOc2ccc(C)n(O)c2=S)c(=S)n1O` here?
**A.** < 0.01 µM

**Q.** And the TGI?
**A.** 7.28 µM

**Q.** How did the TGI turn out when `COc1c(C)n(CCO)ccc1=O` was run?
**A.** > 100 µM

**Q.** `COc1ccc(-c2ccc3c(N4CCOC[C@@H]4C)nc(N4CCOC[C@@H]4C)nc3n2)cc1CO` was tested. Which GI50 did it give?
**A.** 0.00417 µM and 0.0101 µM

**Q.** And the TGI?
**A.** > 100 µM

**Q.** With `N[C@H](CCC(=O)N[C@@H](Cc1c[nH]c2ccccc12)C(=O)O)C(=O)O` as the compound, how does the GI50 read?
**A.** > 100 µM

**Q.** And the TGI?
**A.** > 100 µM

**Q.** For `COC(=O)c1cc2c(o1)-c1nccc3c1c(nc1ccccc13)C2=O`, which GI50 is on record?
**A.** 12.2 µM

**Q.** And the TGI?
**A.** 35 µM

**Q.** Which results are given for `Nc1ccccc1O.O.O=C(O)C1[O][Sb][O]C1C(=O)O` (configuration not stated)?
**A.** GI50: 21.6 µM; TGI: 58.5 µM

**Q.** For `O=C(c1ccco1)c1c(C(F)(F)F)n([O-])c2ccc(C(F)(F)F)cc2[n+]1=O`, which GI50 is on record?
**A.** 0.434 µM

**Q.** What about the TGI of the same compound?
**A.** 1.57 µM

**Q.** With `OC(c1cc(-c2ccc(C(F)(F)F)cc2)nc(C(F)(F)F)c1)C1CCCCN1` (configuration not stated) as the compound, how does the GI50 read?
**A.** 1.81 µM

**Q.** What about the TGI of the same compound?
**A.** 3.4 µM and 3.95 µM

**Q.** For `O=C(Nc1cc(Nc2ncccc2-c2ncnc3nc[nH]c23)ccc1F)c1cc(C(F)(F)F)cc(C(F)(F)F)c1`, which GI50 is on record?
**A.** 1.98 µM

**Q.** And the TGI?
**A.** 5.31 µM

**Q.** What does the source list for `CC1(C)CN=C(NN=C(/C=C/c2ccc(C(F)(F)F)cc2)/C=C/c2ccc(C(F)(F)F)cc2)NC1`?
**A.** GI50: 1.47 µM; TGI: 3.2 µM

**Q.** Which results are given for `CCCCCCCCCCNC(=O)CI`?
**A.** GI50: 3.05 µM; TGI: 9.66 µM

**Q.** Which GI50 does the source give for `CCc1ccc2c(c1)C(=O)c1c-2n(CCCN=[N+]=[N-])c(=O)c2cc([N+](=O)[O-])ccc12` here?
**A.** > 50 µM

**Q.** What about the TGI of the same compound?
**A.** > 50 µM

**Q.** For `Cc1cc(N/N=C/c2ccccn2)nc2ccccc12`, which GI50 is on record?
**A.** 0.349 µM

**Q.** What about the TGI of the same compound?
**A.** 11.6 µM

**Q.** For `Cn1c(=O)c2c(nc(C(=N)SCC(=O)O)n2C)n(C)c1=O`, which TGI is on record?
**A.** > 100 µM

**Q.** `COc1ccc(C(CC(=O)c2ccc3c(c2)OCO3)c2c(O)c3ccccc3oc2=O)cc1OC` (configuration not stated) was tested. Which TGI did it give?
**A.** > 100 µM

**Q.** Which results are given for `Nc1cc(Br)c(-c2nnc(CCC(=O)c3nc4ccccc4[nH]3)o2)c(Br)c1`?
**A.** GI50: 3.99 µM; TGI: 20.1 µM

**Q.** Which GI50 does the source give for `CC(C)(C)[Si](C)(C)OC1[C@@H](CNC(=O)NC(=O)CCl)O[C@@H](n2cnc3c(N)ncnc32)[C@H]1O[Si](C)(C)C(C)(C)C` (some centres not stated) here?
**A.** 1.24 µM

**Q.** And the TGI?
**A.** 3.21 µM

**Q.** `COc1ccc(/C(C)=C(\c2ccc(OCCN3CCCCCC3)cc2)c2ccc(OC(=O)C3CCCCC3)cc2)cc1` was tested. Which GI50 did it give?
**A.** 0.592 µM

**Q.** What about the TGI of the same compound?
**A.** 2.1 µM

**Q.** With `Cn1c(=O)nc2n(-c3cc(C(F)(F)F)cc(C(F)(F)F)c3)c3ccccc3nc-2c1=O` as the compound, how does the TGI read?
**A.** > 100 µM
